What all share (assay type): cell-based, mouse
The test system of assay [1] is peritoneal macrophages (PEMs). The assay is described as follows: Phagocytosis assay of PEMs with RBCs (phagocytosis index). As to conditions: PEMs preincubated 30 min with ML-7 10 μM or BDM 50 mM; IgG-opsonized RBCs 5 min; FIG. 3.
The next assay concerns PEMs. The assay is described as follows: Immunocytofluorescence of PEMs (morphology, F-actin, activated MAPK). As to conditions: PEMs treated with mAb80 in presence of inhibitor; FIG. 4B. The protocol: PEMs treated with rat IgG, mAb80 or mAb84 were fixed for 20 to 30 min at room temperature in PBS containing 4% paraformaldehyde and 0.1% glutaraldehyde, and were then permeabilized for 60 min at room temperature in PBS containing 0.1% Triton X-100 and 5% goat serum (blocking solution). After incubation for 1 h at room temperature or overnight at 4° C. with primary antibody (anti-activated MAPK antibody) diluted in blocking solution, the cells were washed with PBS and incubated for 1 h at room temperature with Alexa488-conjugated secondary antibodies (Molecular Probes) diluted in blocking solution. For visualization of F-actin, cells were incubated with rhodamine-conjugated phalloidin (Molecular Probes) together with the secondary antibodies. The cells were finally washed with PBS and mounted. Fluorescence images were acquired with a laser-scanning confocal microscope (LSM5 PASCAL, Zeiss) (FIG. 4).

The test system of the next assay is MAPK. The assay is described as follows: Immunoblot of activated (phosphorylated) MAPK in PEMs. As to conditions: 50 μM PD98059 or 2 μM U0126, FIG. 2B, C bottom. Here is the method: PEMs were treated with anti-SIRPβ antibody or control IgG, and a secondary antibody, and incubated at 37° C. for 10 min. As a positive control, PEMs were incubated at 37° C. for 10 min in the presence of M-CSF (macrophage colony stimulating factor) (10 ng/ml). As a negative control, non-treated PEMs were used. Then, cells were lysed and subjected to immunoblot analysis using an anti-MAPK antibody (αMAPK), anti-activated (phosphorylated) MAPK antibody (αpMAPK), anti-MEK antibody (αMEK) or anti-activated MEK antibody (αpMEK) (FIG. 2A).
Then, the MEK inhibitors, PD98059 and U0126 were used to examine the role of MAPK-MEK pathway in the macrophage activation by an anti-SIRPβ antibody. PEMs were incubated in the presence or absence of 50 μM PD98059 or 2 μM U0126 at 37° C. for 30 min, and then treated with an anti-SIRPβ antibody or control IgG, and a secondary antibody. After incubation with IgG-opsonized RBCs at 37° C. for 5 min, cells were fixed and phagocytosis index was calculated (FIG. 2B, C; upper figures). On the other hand, PEMs were treated with an anti-SIRPβ antibody or control IgG, and a secondary antibody in the presence or absence of the inhibitors, followed by an analysis using an anti-MAPK antibody (αMAPK) and an anti-activated (phosphorylated) MAPK antibody (αpMAPK) (FIG. 2B, C; bottom figures). […]
On the technique in general: A western blot detects proteins with antibodies after separation by electrophoresis.

Turning to `CC(=O)C(C)=NO` [BDM, 2,3-butanedione 2-monoxime], the “effect of inhibitor on anti-SIRPβ antibody activation of macrophage-mediated phagocytosis” value in assay [1] was “attenuated the activation of macrophages-mediated phagocytosis”.
Take `O=S(=O)(c1cccc2c(I)cccc12)N1CCCNCC1` [ML-7]: in assay [1], the “effect of inhibitor on anti-SIRPβ antibody activation of macrophage-mediated phagocytosis” value is “attenuated the activation of macrophages-mediated phagocytosis”. In addition, the “effect of inhibitor on morphological change of PEMs induced by anti-SIRPβ antibody” value with PEMs was “markedly inhibited”.
As to `COc1cccc(-c2cc(=O)c3ccccc3o2)c1N` [PD98059], the “activation of MAPK by mAb80 and mAb84 in the presence of MEK inhibitor” value in the assay on MAPK is recorded as “did not occur”. Also, in the assay with PEMs, the “effect of inhibitor on morphological change of PEMs induced by anti-SIRPβ antibody” value is recorded as “markedly inhibited”.
Regarding `N#CC(=C(/N)Sc1ccccc1N)/C(C#N)=C(\N)Sc1ccccc1N` [U0126], in the assay on MAPK, the “activation of MAPK by mAb80 and mAb84 in the presence of MEK inhibitor” value is reported as “did not occur”.

The record behind these values is patent publication US7449301B2, “Pharmaceutical composition and method for activating macrophage using the same” (National University Corporation Gunma University, priority 2004, dated 2008).
